The target in data set [1] is Casein kinase I isoform epsilon (Homo sapiens, UniProt P49674). Nature of the data set: biochemical. Type of data set: cell-based, Sf9.
The target in data set [2] is T1, Dual specificity protein kinase CLK1 (Homo sapiens, UniProt P49759). The data set can be described thus: biochemical. Type of data set: cell-based, Sf9.
The target of data set [3] is Dual specificity protein kinase CLK3 (Homo sapiens, UniProt P49761). The data set can be described thus: biochemical. Type of data set: cell-based, Sf9.
Sequence of Dual specificity protein kinase CLK3 (P49761 whole entry): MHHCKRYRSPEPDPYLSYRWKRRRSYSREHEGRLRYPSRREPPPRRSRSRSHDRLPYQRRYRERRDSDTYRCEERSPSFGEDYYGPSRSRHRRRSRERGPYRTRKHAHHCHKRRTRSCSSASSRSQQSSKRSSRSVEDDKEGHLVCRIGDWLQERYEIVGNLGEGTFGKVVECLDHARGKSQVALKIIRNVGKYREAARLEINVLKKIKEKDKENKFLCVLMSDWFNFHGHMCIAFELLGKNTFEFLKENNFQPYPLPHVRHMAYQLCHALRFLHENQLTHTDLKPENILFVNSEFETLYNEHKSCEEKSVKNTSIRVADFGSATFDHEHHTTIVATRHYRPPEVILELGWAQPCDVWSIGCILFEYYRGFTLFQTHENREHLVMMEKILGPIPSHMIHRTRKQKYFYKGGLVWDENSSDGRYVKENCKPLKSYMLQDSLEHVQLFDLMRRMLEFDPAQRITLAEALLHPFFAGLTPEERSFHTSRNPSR
Data set [4] has as its target T2, Dual specificity tyrosine-phosphorylation-regulated kinase 3 (Homo sapiens, UniProt O43781).
T2 sequence (O43781 whole entry): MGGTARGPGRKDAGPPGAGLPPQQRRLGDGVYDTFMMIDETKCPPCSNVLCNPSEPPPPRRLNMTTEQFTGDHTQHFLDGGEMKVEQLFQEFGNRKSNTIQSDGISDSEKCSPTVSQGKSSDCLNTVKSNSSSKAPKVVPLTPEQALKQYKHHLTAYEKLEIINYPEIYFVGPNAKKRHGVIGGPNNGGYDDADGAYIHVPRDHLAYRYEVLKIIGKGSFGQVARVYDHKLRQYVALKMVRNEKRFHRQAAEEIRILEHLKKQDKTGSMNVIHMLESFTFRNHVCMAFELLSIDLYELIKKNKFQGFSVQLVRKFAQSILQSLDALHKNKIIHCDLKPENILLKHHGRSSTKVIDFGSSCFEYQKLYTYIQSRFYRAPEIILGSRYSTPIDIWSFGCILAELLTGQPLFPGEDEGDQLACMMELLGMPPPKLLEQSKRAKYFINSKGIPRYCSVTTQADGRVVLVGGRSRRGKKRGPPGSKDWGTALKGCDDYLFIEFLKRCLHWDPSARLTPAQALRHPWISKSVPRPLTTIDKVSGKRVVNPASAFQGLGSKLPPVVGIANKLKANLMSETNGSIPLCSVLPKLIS
The data set can be described thus: biochemical. The data set is classed as cell-based, Sf9.

For data set [5], the target named is T3, Dual specificity tyrosine-phosphorylation-regulated kinase 4 (Homo sapiens, UniProt Q9NR20).
T3 sequence (Q9NR20 whole entry): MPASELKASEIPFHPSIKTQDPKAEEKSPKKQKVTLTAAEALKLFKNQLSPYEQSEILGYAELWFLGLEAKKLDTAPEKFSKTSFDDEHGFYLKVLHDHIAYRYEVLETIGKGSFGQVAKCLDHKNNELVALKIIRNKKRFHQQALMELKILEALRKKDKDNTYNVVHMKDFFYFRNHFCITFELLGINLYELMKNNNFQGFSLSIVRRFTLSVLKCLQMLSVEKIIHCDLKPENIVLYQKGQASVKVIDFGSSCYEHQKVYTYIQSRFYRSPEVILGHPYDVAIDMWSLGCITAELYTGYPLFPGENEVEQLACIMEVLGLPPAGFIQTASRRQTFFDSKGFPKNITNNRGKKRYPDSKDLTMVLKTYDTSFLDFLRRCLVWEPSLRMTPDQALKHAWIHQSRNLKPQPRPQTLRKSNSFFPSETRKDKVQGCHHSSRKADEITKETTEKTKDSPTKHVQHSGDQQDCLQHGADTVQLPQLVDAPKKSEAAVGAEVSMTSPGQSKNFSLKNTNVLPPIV
Nature of the data set: biochemical. The data set is classed as cell-based, Sf9.

The target of data set [6] is T1, Dual specificity protein kinase CLK1. The data set can be described thus: biochemical. The data set is classed as cell-based, Sf9. The settings on record: read-out: IC50.
For data set [7] the target is unchanged.
A further data set in a line: in vitro. The settings on record: mouse, ht-22.
The target of data set [8] is Dual specificity protein kinase CLK2 (Homo sapiens, UniProt P49760). The data set can be described thus: biochemical.
Sequence of Dual specificity protein kinase CLK2 (P49760 whole entry): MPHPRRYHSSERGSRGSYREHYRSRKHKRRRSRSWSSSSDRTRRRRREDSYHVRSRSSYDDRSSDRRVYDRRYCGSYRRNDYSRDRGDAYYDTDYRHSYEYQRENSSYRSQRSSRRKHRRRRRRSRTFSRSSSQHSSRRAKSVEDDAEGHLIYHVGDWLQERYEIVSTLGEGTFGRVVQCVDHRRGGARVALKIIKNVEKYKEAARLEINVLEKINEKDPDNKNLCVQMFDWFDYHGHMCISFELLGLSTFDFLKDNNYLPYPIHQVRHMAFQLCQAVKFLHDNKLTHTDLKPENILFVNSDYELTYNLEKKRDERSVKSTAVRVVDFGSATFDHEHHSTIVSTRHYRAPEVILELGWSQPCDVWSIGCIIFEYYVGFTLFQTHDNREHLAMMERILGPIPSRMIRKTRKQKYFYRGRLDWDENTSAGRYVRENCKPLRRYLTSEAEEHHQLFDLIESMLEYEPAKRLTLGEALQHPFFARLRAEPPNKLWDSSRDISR
The target of data set [9] is Dual specificity protein kinase CLK4 (Homo sapiens, UniProt Q9HAZ1). Nature of the data set: biochemical.
Sequence of Dual specificity protein kinase CLK4 (Q9HAZ1 whole entry): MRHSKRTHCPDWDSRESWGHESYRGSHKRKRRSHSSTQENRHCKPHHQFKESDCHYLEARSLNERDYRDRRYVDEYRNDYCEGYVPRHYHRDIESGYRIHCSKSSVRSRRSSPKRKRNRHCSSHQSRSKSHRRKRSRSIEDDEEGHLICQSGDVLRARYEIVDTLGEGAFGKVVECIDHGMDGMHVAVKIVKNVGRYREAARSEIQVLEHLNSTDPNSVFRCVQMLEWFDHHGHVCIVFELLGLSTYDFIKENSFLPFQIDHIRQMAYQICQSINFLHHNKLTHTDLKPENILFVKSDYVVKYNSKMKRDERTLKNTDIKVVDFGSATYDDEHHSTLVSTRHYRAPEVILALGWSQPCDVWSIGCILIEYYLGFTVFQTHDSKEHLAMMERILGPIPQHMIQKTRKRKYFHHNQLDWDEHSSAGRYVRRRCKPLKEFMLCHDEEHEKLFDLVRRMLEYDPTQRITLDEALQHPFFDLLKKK
Data set [10] addresses Cyclin-dependent kinase 5/CDK5 activator 1 (Homo sapiens, UniProt Q00535). The data set can be described thus: biochemical. The data set is classed as cell-based, Sf9.
Data set [11] has as its target T4, Dual specificity tyrosine-phosphorylation-regulated kinase 2 (Homo sapiens, UniProt Q92630).
T4 sequence (Q92630 whole entry): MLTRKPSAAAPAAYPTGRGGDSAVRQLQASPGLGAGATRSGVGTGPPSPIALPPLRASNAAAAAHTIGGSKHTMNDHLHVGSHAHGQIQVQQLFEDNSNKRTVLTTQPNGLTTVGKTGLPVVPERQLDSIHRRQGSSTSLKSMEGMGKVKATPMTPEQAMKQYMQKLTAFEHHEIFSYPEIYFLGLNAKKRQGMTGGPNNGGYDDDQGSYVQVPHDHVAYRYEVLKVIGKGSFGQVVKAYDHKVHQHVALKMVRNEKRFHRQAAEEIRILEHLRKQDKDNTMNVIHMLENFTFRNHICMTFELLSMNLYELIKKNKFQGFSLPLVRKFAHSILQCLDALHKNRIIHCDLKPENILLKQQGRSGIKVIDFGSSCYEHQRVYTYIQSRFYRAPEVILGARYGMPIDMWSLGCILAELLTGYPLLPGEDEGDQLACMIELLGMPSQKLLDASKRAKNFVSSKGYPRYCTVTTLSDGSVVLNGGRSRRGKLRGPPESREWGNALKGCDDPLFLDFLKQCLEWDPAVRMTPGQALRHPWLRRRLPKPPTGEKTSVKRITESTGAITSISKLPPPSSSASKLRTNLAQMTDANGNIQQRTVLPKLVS
The data set can be described thus: biochemical. The data set is classed as cell-based, Sf9.

In data set [12] the target is Glycogen synthase kinase-3 beta (Homo sapiens, UniProt P49841). The data set can be described thus: biochemical. Type of data set: cell-based, Sf9.
Sequence of Glycogen synthase kinase-3 beta (P49841 whole entry): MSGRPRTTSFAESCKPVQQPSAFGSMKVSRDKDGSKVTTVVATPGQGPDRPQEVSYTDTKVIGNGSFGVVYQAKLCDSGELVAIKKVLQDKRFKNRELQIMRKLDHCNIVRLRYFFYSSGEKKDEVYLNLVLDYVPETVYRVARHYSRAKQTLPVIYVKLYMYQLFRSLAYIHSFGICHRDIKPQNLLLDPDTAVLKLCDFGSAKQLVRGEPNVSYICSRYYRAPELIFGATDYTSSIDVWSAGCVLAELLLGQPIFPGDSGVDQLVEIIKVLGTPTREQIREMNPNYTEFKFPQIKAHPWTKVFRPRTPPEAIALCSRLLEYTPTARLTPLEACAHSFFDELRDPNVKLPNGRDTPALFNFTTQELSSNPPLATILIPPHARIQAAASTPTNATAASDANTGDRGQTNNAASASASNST

Each structure is given as a SMILES string.

Sequence of Cyclin-dependent kinase 5/CDK5 activator 1 (Q00535 whole entry): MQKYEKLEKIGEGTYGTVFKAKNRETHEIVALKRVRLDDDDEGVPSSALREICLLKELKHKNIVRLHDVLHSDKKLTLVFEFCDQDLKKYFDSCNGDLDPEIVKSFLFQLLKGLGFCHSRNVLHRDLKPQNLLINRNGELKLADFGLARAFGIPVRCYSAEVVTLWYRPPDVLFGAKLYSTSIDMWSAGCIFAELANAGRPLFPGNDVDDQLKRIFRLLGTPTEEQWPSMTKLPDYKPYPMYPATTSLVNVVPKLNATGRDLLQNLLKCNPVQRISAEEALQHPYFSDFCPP
Sequence of Cyclin-dependent kinase 5/CDK5 activator 1 (Q15078 whole entry, further chain): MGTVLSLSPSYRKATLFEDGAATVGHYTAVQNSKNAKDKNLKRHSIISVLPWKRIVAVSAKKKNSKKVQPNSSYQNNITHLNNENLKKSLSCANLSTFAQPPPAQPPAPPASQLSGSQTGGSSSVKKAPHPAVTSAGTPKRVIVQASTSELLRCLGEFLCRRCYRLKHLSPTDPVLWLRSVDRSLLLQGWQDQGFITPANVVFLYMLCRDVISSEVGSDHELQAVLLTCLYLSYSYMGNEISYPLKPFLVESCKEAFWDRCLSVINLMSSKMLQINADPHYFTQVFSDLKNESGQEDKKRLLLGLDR
Sequence of Casein kinase I isoform epsilon (P49674 whole entry, canonical isoform): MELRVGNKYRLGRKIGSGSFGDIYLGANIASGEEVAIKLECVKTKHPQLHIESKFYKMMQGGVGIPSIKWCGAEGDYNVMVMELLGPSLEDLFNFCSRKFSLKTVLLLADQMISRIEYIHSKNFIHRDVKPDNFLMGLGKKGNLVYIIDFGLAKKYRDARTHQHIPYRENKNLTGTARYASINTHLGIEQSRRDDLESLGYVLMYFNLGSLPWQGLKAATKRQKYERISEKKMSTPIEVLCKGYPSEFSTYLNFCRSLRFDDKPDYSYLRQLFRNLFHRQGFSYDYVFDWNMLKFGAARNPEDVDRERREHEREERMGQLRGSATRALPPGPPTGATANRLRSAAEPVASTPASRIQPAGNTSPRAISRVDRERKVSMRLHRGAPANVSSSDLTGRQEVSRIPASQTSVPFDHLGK
T1 sequence (P49759 whole entry): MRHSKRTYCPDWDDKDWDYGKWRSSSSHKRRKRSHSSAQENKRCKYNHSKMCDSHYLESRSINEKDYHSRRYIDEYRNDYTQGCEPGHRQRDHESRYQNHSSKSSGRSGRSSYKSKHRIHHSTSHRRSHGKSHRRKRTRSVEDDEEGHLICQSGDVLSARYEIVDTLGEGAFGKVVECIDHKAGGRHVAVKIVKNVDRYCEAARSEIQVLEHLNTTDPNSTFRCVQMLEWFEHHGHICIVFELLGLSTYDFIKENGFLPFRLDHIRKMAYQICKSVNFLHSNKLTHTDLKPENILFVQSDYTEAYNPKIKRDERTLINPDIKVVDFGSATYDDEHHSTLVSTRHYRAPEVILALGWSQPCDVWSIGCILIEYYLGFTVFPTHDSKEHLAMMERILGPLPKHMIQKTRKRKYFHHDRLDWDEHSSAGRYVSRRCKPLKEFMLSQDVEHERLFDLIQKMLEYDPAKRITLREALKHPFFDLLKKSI

The IC50 is the concentration needed to halve the response being measured. Usually Kd stands for the constant that tells how readily two partners part at equilibrium. Low readings indicate tighter binding, high ones weaker binding. In the case of `CCN1CCN(Cc2ccc(Nc3ncc(F)c(-c4cc(F)c5nc(C)n(C(C)C)c5c4)n3)nc2)CC1` [ABEMACICLIB], the 50% inhibitory concentration (IC50) is above 10000 nM in data set [1]; 64.7 nM in data set [2]; 7480 nM in [3]; 20.6 nM in [4]; 3560 nM in [5]; 81.4 nM in data set [6]. Besides, the IC50 in data set [8] came out at 185 nM; in data set [9], 89.9 nM. The same compound showed a Kd in data set [7] of 0.851 nM. The compound also yielded an IC50 at 48 h in the data set “in vitro” of 12200 nM.

Turning to `Cn1cc(-c2ccc3cnc(NC(=O)C4CCN(S(C)(=O)=O)CC4)cc3c2)cn1`, the IC50 is 1790 nM in [10]; above 10000 nM in [1]; 37.7 nM in [2]; 681 nM in data set [3]; 37.2 nM in [11]; 209 nM in [4]. For the same compound, the IC50 is 612 nM in [5], 20.6 nM in data set [6], 89.6 nM in [8] and 14.1 nM in data set [9]. In data set [7], this compound showed a Kd of 0.62 nM. This compound returned an IC50 at 48 h in “in vitro” of 5900 nM.

In the data set “in vitro”, `[H]/N=C(\N/C(=N/[H])NCCCCCCNC(=N)NC(=N)Nc1ccc(Cl)cc1)Nc1ccc(Cl)cc1` [CHLORHEXIDINE] came in with an IC50 at 48 h of 5600 nM. The same compound registered an IC50 in data set [8] of 9160 nM.

As to `O=C(O)c1ccc2c(c1)nc(Nc1cccc(Cl)c1)c1ccncc12` [SILMITASERTIB], the IC50 was above 10000 nM in data set [10]; above 10000 nM in [1]; 77.4 nM in data set [3]; 99.2 nM in data set [11]; 30.8 nM in data set [4]; 1520 nM in data set [5]. The IC50 in data set [9] stood at 2.6 nM. The same compound registered an IC50 at 48 h in the data set “in vitro” of 21300 nM.

Consider `COc1ccc2sc(-c3cncc(NC(C)=O)c3)nc2c1`, for which the IC50 was above 10000 nM in data set [10]; above 10000 nM in [1]; 572 nM in data set [2]; above 10000 nM in data set [3]; 1460 nM in data set [11]; above 10000 nM in data set [4]. Also, the IC50 in [5] was above 10000 nM; in [12], above 10000 nM; in data set [6], 385 nM; in data set [8], 4410 nM; in data set [9], 340 nM. The midpoint of inhibition in the data set “in vitro”, the IC50 at 48 h, lay at 100000 nM.

Regarding `O=C(Nc1ccc2[nH]ncc2c1)c1csc(Nc2ccccc2)n1`, the IC50 in data set [10] is above 10000 nM; in data set [1] it was above 10000 nM; in data set [2], 89.6 nM; in data set [3], above 10000 nM; in data set [11], 439 nM; in data set [4] it was 5450 nM. The IC50 in data set [5] was above 10000 nM; in data set [6], 507 nM; in data set [8], 82 nM; in data set [9], 123 nM. Besides, the Kd in [7] turned out to be 200 nM. Besides, the IC50 at 48 h in the data set “in vitro” was above 100000 nM.

As to `c1cc(OCCN2CCCCC2)cc(-c2n[nH]c3ccc(-c4nc[nH]n4)cc23)c1` [CC-401], the IC50 in [10] is above 10000 nM; in data set [1], 1510 nM; in data set [2] it was 441 nM; in [3], above 10000 nM; in data set [11], 7920 nM; in data set [4], 4310 nM. In addition, the IC50 was above 10000 nM in data set [5], 2850 nM in data set [6], 405 nM in [8] and 154 nM in data set [9]. This compound came in with a Kd in [7] of 5.97 nM. The compound further showed an IC50 at 48 h in “in vitro” of 51700 nM.

Regarding `c1ccc(CNc2nc(Nc3cc(C4CC4)[nH]n3)c3sccc3n2)cc1`, the IC50 in [1] was 8360 nM; in [2] it was 76.1 nM; in [3], 1910 nM; in [11] it was 4730 nM; in data set [4] it was 4240 nM; in data set [5], above 10000 nM. Also, the IC50 in [6] came to 56.2 nM; in data set [8], 82.8 nM. In data set [7], this compound showed a dissociation constant (Kd) of 10.2 nM. The compound also showed an IC50 at 48 h in “in vitro” of 54000 nM.

Regarding `CN1CCN(c2cc(C(=O)Nc3cc4cc(-c5cnn(C)c5)ccc4cn3)ccn2)CC1`, the IC50 was found to be 3960 nM in [10]; 3010 nM in data set [1]; 7.1 nM in data set [2]; 9.1 nM in data set [6]; 4.3 nM in [9]. Also, the Kd in [7] came out at 0.018 nM. The compound further gave an IC50 at 48 h in the data set “in vitro” of 180 nM.

Consider `COc1ccc(/C=C2\SC(=S)NC2=O)cc1C#C[Si](C)(C)C`, for which the IC50 in data set [10] was above 10000 nM; in data set [1] it was above 10000 nM; in [2] it was 8310 nM; in data set [3], 7230 nM; in [11], above 10000 nM; in data set [4] it was above 10000 nM. Moreover, the IC50 in [5] is above 10000 nM; in [12], above 10000 nM; in [8], 8410 nM; in data set [9], above 10000 nM. Inhibition in “in vitro” was half-maximal at 64800 nM (IC50 at 48 h).

Turning to `COc1ccc2c(c1)[nH]c1c(C)nccc12` [HARMINE], the IC50 in data set [3] was determined as 8810 nM; in data set [11], 3170 nM; in data set [4] it was 2860 nM; in data set [5], 8360 nM; in [8], 1150 nM; in [9], 102 nM. The IC50 at 48 h in the data set “in vitro” came to 56500 nM.

For the compound `COc1ccc2nc3c(CO)cc(OC)cc3c(SC[C@H]3CCNC3)c2c1`, the IC50 in data set [10] is above 10000 nM; in data set [1], above 10000 nM; in data set [2] it was 1250 nM; in [3] it was 6500 nM; in data set [5], 1930 nM; in [12] it was above 10000 nM. Also, the values for the IC50 in [8] and in [9] were 4290 nM and 537 nM, respectively. The same compound registered an IC50 at 48 h in the data set “in vitro” of 14700 nM.

On to `CNCc1ccc(-c2[nH]c3cc(F)cc4c3c2CCNC4=O)cc1` [RUCAPARIB], for which the IC50 in [1] was above 10000 nM; in [2], above 10000 nM; in [3], above 10000 nM; in data set [11], above 10000 nM; in data set [4], 8030 nM; in data set [5], above 10000 nM. The IC50 in data set [8] and in data set [9] was above 10000 nM in each case. For the same compound, the midpoint of inhibition in “in vitro”, the IC50 at 48 h, lay at 57000 nM.

For `Cc1nc2ccc(-c3cc(N)nc(N)c3)nc2n1CC(F)(F)F`, the IC50 was 414 nM in data set [10]; 1770 nM in data set [1]; 1110 nM in data set [3]; 8.8 nM in data set [11]; above 10000 nM in [4]; 426 nM in data set [5]. The IC50 in [8] was 24.7 nM; in data set [9], 16.2 nM. The compound further displayed an IC50 at 48 h in “in vitro” of 7700 nM.

As to `COc1ccc(-n2c(C)c([N+](=O)[O-])c3ccc(O)cc32)cc1`, the IC50 in [10], in data set [1] and in data set [4] was above 10000 nM each time. In the data set “in vitro”, the IC50 at 48 h is above 100000 nM.

The record behind these values is ChEMBL document CHEMBL5247649, “Comparative Efficacy and Selectivity of Pharmacological Inhibitors of DYRK and CLK Protein Kinases” (J Med Chem, 2023).
